Test results reported in patent US11000491B2, “Amino-aryl-benzamide compounds and methods of use thereof” (HEPANOVA, INC., priority 2017, dated 2021).
pEC50: −log10 of the molar value. Read-outs that look alike come from different tables or passages of the source.

Columns and labels:
Type in all cases: cell-based
SREBP-1 = SREBP-1 expression in cultured primary human hepatocytes; conditions: procedure of Example 6, read-out: SREBP-1 mRNA inhibition (EC50)
Experimental: (§1) FIG. 9. Effects of HPN-01 on the expression of SREBP-1 (master regulator of hepatic glucose metabolism and fatty acid synthesis) and SREBP-2 (master regulator of cholesterol homeostasis in cells) in cultured primary human hepatocytes.
(§2) Cultured primary human hepatocytes were treated with various concentrations of HPN-01, and the expression levels of SREBP-1 (master regulator of hepatic glucose metabolism and fatty acid synthesis) and SREBP-2 (master regulator of cholesterol homeostasis in cells) were subsequently determined.
(§3) The ability of each HPN-01 derivative obtained from the synthesis methods described above, to inhibit SREBP-1 and SREBP-2 mRNA expression in primary hepatocytes, was tested using the procedure outlined in Example 6. The results of this analysis are shown in Table 6 (third and fourth columns).

Huh7 cells = assay: LD content in Huh7 cells pre-treated with insulin, Oil-Red-O staining, absorbance OD 540 nm; conditions: procedure of Example 3, read-out: LD content inhibition (EC50)
Experimental: FIG. 6. […] Spectrophotometric absorbance of untreated or HPN-01-treated Huh7 cells pre-incubated with 1 mM insulin is shown. LD contents were stained using Oil Red O, and measured by determining spectrophotometer absorbance under OD 540 nm.
Huh7 cells were mock treated or pre-treated with 1 mM insulin, and subsequently treated with indicated amounted of HPN-01.
The ability of each HPN-01 derivative obtained from the synthesis methods described above, to inhibit LD formation in hepatocytes, was tested using the procedure outlined in Example 3. The results of this analysis are shown below in Table 6 (second column).

SREBP-2 = SREBP-2 expression in cultured primary human hepatocytes; conditions: procedure of Example 6, read-out: SREBP-2 mRNA inhibition (EC50)
Experimental: as §1, §2, §3

[1] = Homo sapiens, Huh-7, Huh7 cells

Compound | pEC50 (SREBP-1; Homo sapiens, Hepatocyte) | pEC50 (Huh7 cells; [1]) | pEC50 (SREBP-2; Homo sapiens, Hepatocyte) | pEC50 (SREBP-1) | pEC50 (Huh7 cells; Huh7 cells) | pEC50 (SREBP-2) | pEC50 (SREBP-1; Hepatocyte) | pEC50 (SREBP-2; Hepatocyte)
NC(=O)c1cc(/C=C/c2ccccc2Cl)cc(-c2ccc(S(N)(=O)=O)cc2)c1N [HPN-01108, (E)-2-amino-5-(2-chlorostyryl)-4′-sulfamoyl-[1,1′-biphenyl]-3-carboxamide] | 5.59 | 6.26 | 5.33 |  |  |  |  | 
NC(=O)c1cc(-c2ccc(Cl)cc2)cc(OCc2ccc(S(N)(=O)=O)cc2)c1N [HPN-01424, 4-amino-4′-chloro-5-((4-sulfamoylbenzyl)oxy)-[1,1′-biphenyl]-3-carboxamide] | 5.57 | 5.84 | 5.37 |  |  |  |  | 
Nc1c(C(=O)NCCO)cc(-c2ccc(Cl)cc2)cc1-c1ccc(S(N)(=O)=O)cc1 [HPN-01607, 4′-amino-4-chloro-N-(2-hydroxyethyl)-4″-sulfamoyl-[1,1′:3′,1″-terphenyl]-5′-carboxamide] | 5.17 | 5.52 | 4.90 |  |  |  |  | 
NC(=O)c1cc(-c2ccc(Cl)nc2)cc(-c2ccc(S(N)(=O)=O)cc2)c1N [HPN-01307, 2-amino-5-(6-chloropyridin-3-yl)-4′-sulfamoyl-[1,1′-biphenyl]-3-carboxamide] | 5.25 | 5.87 | 5.34 |  |  |  |  | 
NC(=O)c1cc(C#CCOC(=O)c2ccccc2Cl)cc(-c2ccc(S(N)(=O)=O)cc2)c1N [HPN-01210, 3-(6-amino-5-carbamoyl-4′-sulfamoyl-[1,1′-biphenyl]-3-yl)prop-2-yn-1-yl 2-chlorobenzoate] | 5.72 | 6.28 | 5.53 |  |  |  |  | 
COc1ccccc1C(=O)OCC#Cc1cc(C(N)=O)c(N)c(-c2ccc(S(N)(=O)=O)cc2)c1 [HPN-01217, 3-(6-amino-5-carbamoyl-4′-sulfamoyl-[1,1′-biphenyl]-3-yl)prop-2-yn-1-yl 2-methoxybenzoate] | 5.99 | 6.74 | 5.68 |  |  |  |  | 
NC(=O)c1cc(/C=C/C(=O)Nc2ccc(Cl)cc2)cc(-c2ccc(S(N)(=O)=O)cc2)c1N [HPN-01130, (E)-2-amino-5-(3-((4-chlorophenyl)amino)-3-oxoprop-1-en-1-yl)-4′-sulfamoyl-[1,1′-biphenyl]-3-carboxamide] | 6.01 | 7.22 | 5.74 |  |  |  |  | 
NC(=O)c1cc(Sc2ccc(Cl)cc2)cc(-c2ccc(S(N)(=O)=O)cc2)c1N [HPN-01314, 2-amino-5-((4-chlorophenyl)thio)-4′-sulfamoyl-[1,1′-biphenyl]-3-carboxamide] | 5.34 | 5.93 | 5.11 |  |  |  |  | 
(E)-2-amino-5-(3-oxo-3-(phenylamino)prop-1-en-1-yl)-4′-sulfamoyl-[1,1′-biphenyl]-3-carboxamide [HPN-01125] |  |  |  | 5.55 | 6.42 | 5.37 |  | 
COc1cccc(NC(=O)c2cc(-c3ccc(Cl)cc3)cc(-c3ccc(S(N)(=O)=O)cc3)c2N)c1 [HPN-01619, 4′-amino-4-chloro-N-(3-methoxyphenyl)-4″-sulfamoyl-[1, 1′:3′,1″-terphenyl]-5′-carboxamide] | 5.38 | 5.88 | 5.10 |  |  |  |  | 
NC(=O)c1cc(-c2ccc(Cl)cc2)cc(-c2ccc(S(N)(=O)=O)cc2)c1NCCO [HPN-01531, 4-chloro-4′-((2-hydroxyethyl)amino)-4″-sulfamoyl-[1,1′:3′,1″-terphenyl]-5′-carboxamide] | 5.50 | 5.19 | 5.24 |  |  |  |  | 
NC(=O)c1cc(-c2ccc(Cl)cc2)cc(-c2ccc(S(N)(=O)=O)cn2)c1N [HPN-01428, 4-amino-4′-chloro-5-(5-sulfamoylpyridin-2-yl)-[1,1′-biphenyl]-3-carboxamide] | 5.25 | 5.94 | 4.73 |  |  |  |  | 
4′-acetamido-4-chloro-4″-ureido-[1,1′:3′,1″-terphenyl]-5′-carboxamide [HPN-01505] |  |  |  | 5.87 | 6.23 | 5.62 |  | 
NCCC(=O)Oc1c(C(N)=O)cc(-c2ccc(Br)cc2)cc1-c1ccc(NC(N)=O)cc1 [HPN-01526, 4-bromo-5′-carbamoyl-4″-ureido-[1,1′:3′,1″-terphenyl]-4′-yl 3-aminopropanoate] | 5.79 | 5.94 | 5.42 |  |  |  |  | 
NC(=O)c1cc(/C=C/c2cccc(Cl)c2)cc(-c2ccc(S(N)(=O)=O)cc2)c1N [HPN-01102, (E)-2-amino-5-(3-chlorostyryl)-4′-sulfamoyl-[1,1′-biphenyl]-3-carboxamide] | 5.79 | 6.34 | 5.47 |  |  |  |  | 
COC(=O)c1cccc(Oc2cc(C(N)=O)c(N)c(-c3ccc(S(N)(=O)=O)cc3)c2)c1 [HPN-01320, methyl 3-((6-amino-5-carbamoyl-4′-sulfamoyl-[1,1′-biphenyl]-3-yl)oxy)benzoate] | 5.96 | 6.16 | 5.67 |  |  |  |  | 
CC(C)NC(=O)Nc1ccc(-c2cc(-c3ccc(Cl)cc3)cc(C(N)=O)c2N)cc1 [HPN-01430, 4′-amino-4-chloro-4″-(3-isopropylureido)-[1,1′:3′,1″-terphenyl]-5′-carboxamide] | 5.73 | 5.27 | 5.36 |  |  |  |  | 
NC(=O)c1cc(-c2ccc(Cl)cc2)cc(-c2ccc(S(N)(=O)=O)cc2)c1NCCc1ccccc1 [HPN-01534, 4-chloro-4′-(phenethylamino)-4″-sulfamoyl-[1,1′:3′,1″-terphenyl]-5′-carboxamide] | 5.53 | 5.95 | 5.17 |  |  |  |  | 
NC(=O)c1cc(-c2ccc(Cl)cc2)cc(N2CCN(S(N)(=O)=O)CC2)c1N [HPN-01427, 4-amino-4′-chloro-5-(4-sulfamoylpiperazin-1-yl)-[1,1′-biphenyl]-3-carboxamide] | 5.48 | 5.95 | 5.42 |  |  |  |  | 
NC(=O)c1cc(C#CCOC(=O)c2ccccc2Br)cc(-c2ccc(S(N)(=O)=O)cc2)c1N [HPN-01211, 3-(6-amino-5-carbamoyl-4′-sulfamoyl-[1,1′-biphenyl]-3-yl)prop-2-yn-1-yl 2-bromobenzoate] | 5.42 | 6.11 | 5.15 |  |  |  |  | 
C[Si](C)(C)C#Cc1cc(C(N)=O)c(N)c(-c2ccc(S(N)(=O)=O)cc2)c1 [HPN-01209, 2-amino-4′-sulfamoyl-5-((trimethylsilyl)ethynyl)-[1,1′-biphenyl]-3-carboxamide] |  | 6.09 |  |  |  |  | 5.63 | 5.70
CCCC(=O)Oc1cccc(/C=C/c2cc(C(N)=O)c(N)c(-c3ccc(S(N)(=O)=O)cc3)c2)c1 [HPN-01111, (E)-3-(2-(6-amino-5-carbamoyl-4′-sulfamoyl-[1,1′-biphenyl]-3-yl)vinyl)phenyl butyrate] | 5.68 | 6.12 | 5.61 |  |  |  |  | 
NC(=O)c1cc(-c2ccc(Cl)cc2)cc(-c2ccc(S(N)(=O)=O)cc2)c1NC(=O)C1CC1 [HPN-01503, 4-chloro-4′-(cyclopropanecarboxamido)-4″-sulfamoyl-[1,1′:3′,1″-terphenyl]-5′-carboxamide] | 5.40 | 6.15 | 5.19 |  |  |  |  | 
NC(=O)c1cc(Oc2cccc(C(=O)O)c2)cc(-c2ccc(S(N)(=O)=O)cc2)c1N [HPN-01318, 3-((6-amino-5-carbamoyl-4′-sulfamoyl-[1,1′-biphenyl]-3-yl)oxy)benzoic acid] | 6.11 | 6.51 | 5.94 |  |  |  |  | 
NC(=O)c1cc(-c2c[nH]c(Br)c2)cc(-c2ccc(S(N)(=O)=O)cc2)c1N [HPN-01311, 2-amino-5-(5-bromo-1H-pyrrol-3-yl)-4′-sulfamoyl-[1,1′-biphenyl]-3-carboxamide] | 5.51 | 5.69 | 5.25 |  |  |  |  | 
